# Data taken from patent US9701670B2, “Pyrazolyl-ureas as kinase inhibitors” (RESPIVERT LIMITED, priority 2013, dated 2017).
# Marks after values point to notes of the source that are not given here.
# Legend:
# [1] = Hepatic microsomal stability; format: in vitro ADME, human
# Method: • Microsomal stability assays were performed with incubations of test compounds at 0.1 μM (n=2, final DMSO concentration 0.25%), and carried out using pooled human, dog and rat hepatic microsomes from Xenotech (Lots 1210153, 0810143 and 1110042, respectively) at 0.25 mg protein/mL in the presence of co-factor, NADPH. The incubations were performed at 37° C. with 100 μL aliquots taken from the incubation, at 0, 2, 5, 10 and 20 minutes and reactions terminated by addition of 100 μL of acetonitrile containing carbamazepine as analytical internal standard. […] Half-life values were calculated from the relationship T1/2(min)=−0.693/λ • where λ was the slope of the Ln concentration vs time curve. • The in vitro intrinsic clearance, CIint (mL/min/kg), was calculated and scaled to hepatic extraction ratios using the following scaling parameters and formulae.
# (§1) Formulae CIint(tissue clearance) mL/min/kg=[0.693/t½(min)]×[1/microsomal protein concentration mg/mL]×[mg microsomes/g liver]×[g liver/kg body weight] […] The incubations were performed at 37° C. with 100 μL samples taken from the incubation, at 0, 10, 20, 45 and 90 minutes, and reactions terminated by addition of 100 μL of acetonitrile containing carbamazepine as analytical internal standard. […] Half-life values were calculated from the relationship T1/2(min)=−0.693/λ • where λ was the slope of the Ln concentration vs time curve. • Standard compounds testosterone, midazolam and 4-methylumbelliferone are included in the assay design.
# [2] = test system: Intestinal mucosa biopsies from the inflamed regions of the colon of IBD patients; test: (h) Human biopsy assay (cytokine release); format: cell-based
# Method: Intestinal mucosa biopsies are obtained from the inflamed regions of the colon of IBD patients. The biopsy material is cut into small pieces (2-3 mm) and placed on steel grids in an organ culture chamber at 37° C. in a 5% CO2/95% O2 atmosphere in serum-free media. DMSO control or test compounds at the desired concentration are added to the tissue and incubated for 24 hr in the organ culture chamber. The supernatant is harvested for determination of IL-6, IL-8, […] and TNFα levels by R&D ELISA.
# SCID mice = test: (D) Adoptive transfer in mice; format: in vivo, mouse
# Method: On Study day 0, female Balb/C mice are terminated and spleens obtained for CD45RB^high cell isolation (Using SCID IBD cell Separation protocol). Approximately 4×10^5 cells/mL CD45RB^high cells are then injected IP (100 μL/mouse) into female SCID animals. On study day 14, mice are weighed and randomized into treatment groups based on body weight. On Day 21, compounds are administered BID, via oral gavage, in a peanut oil vehicle at the dose levels outlined below and a dose volume of 5 mL/kg. Treatment continues until study day 42, at which point the animals are necropsied 4 hours after am administration. The colon length and weight is recorded and used as a secondary endpoint in the study as a measurement of colon oedema. The colon is then divided into six cross-sections, four of which are used for histopathology scoring (primary endpoint) and two are homogenised for cytokine analysis. Data shown is the % inhibition of the induction window between naïve animals and vehicle animals, where higher inhibition implies closer to the non-diseased, naïve, phenotype.
# [3] = Pharmacokinetics and total colon tissue distribution in mice; format: in vivo, male C57BL/6 mice; settings: male, Mouse, 5 mg/kg p.o.
# Method: Studies were conducted by Sai Life Sciences (Hinjewadi, Pune, India) to investigate the pharmacokinetics and total colon tissue distribution of the compound of Example 77 in male C57BL/6 mice following a single oral administration.
# A group of twenty one male mice were dosed with a suspension formulation (in peanut oil) of the compound of Example 77, at a dose of 5 mg/kg. Blood samples (approximately 60 μL) were collected from retro orbital plexus such that the samples were obtained at 1, 2, 4, 6, 8, 12 and 24 hr. The blood samples were collected from a set of three mice at each time point in labelled micro centrifuge tube containing K2EDTA as anticoagulant. Plasma samples were separated by centrifugation at 4000 rpm for 10 min of whole blood and stored below −70° C. until bioanalysis. After collection of blood sample, animals were humanely euthanized by carbon dioxide asphyxiation to collect total colon tissues. The colons were flushed with cold phosphate buffer saline (pH 7.4) to remove contents. The total colon tissues were homogenized with cold phosphate buffer saline (pH 7.4) of twice the weight of colon tissue and stored below −70° C. Total volume was three times the total colon tissue weights. All samples were processed for analysis by protein precipitation using acetonitrile and analyzed with developed LC-MS/MS method (LLOQ: 2.02 ng/mL in plasma and 1.01 ng/mL in colon tissue). Pharmacokinetic parameters were calculated using the non-compartmental analysis tool of Phoenix WinNonlin® software (version 6.3).
# [4] = Cryopreserved hepatocyte stability; format: in vitro ADME; settings: scaled from intrinsic clearance, mean of two experiments
# Method: as §1
# CIint(Tissue Clearance) mL/min/kg=[0.693/t½(min)]×[1/hepatocyte concentration (million cells/mL)]×[million cells/g liver]×[g liver/kg body weight] CIint(Hepatic clearance) mL/min/kg=hepatic blood flow×CIint/(hepatic blood flow+CIint) Hepatic extraction ratio (Eh)=CIint(Hepatic clearance) mL/min/kg/hepatic blood flow (mL/min/kg)
# [5] = C57BL/6, total colon tissue, po, Total colon
structure (smiles),measurement,setting,value
"C#Cc1cc(Nc2nccc(Oc3ccc(NC(=O)Nc4cc(C(C)(C)C)nn4-c4ccc(OC)cc4)c4ccccc34)n2)cc(C(=O)NCCN2CCOCC2)c1 [Example 77, 3-((4-((4-(3-(3-(tert-Butyl)-1-(4-methoxyphenyl)-1H-pyrazol-5-yl)ureido)-naphthalen-1-yl)oxy)pyrimidin-2-yl)amino)-5-ethynyl-N-(2-morpholinoethyl)benzamide]",hepatic clearance,[1]; conclusion from Tables 9a and 9b (hepatic microsomes and hepatocytes),high hepatic clearance
same,Mean hepatic extraction ratio (Eh),"[1]; human hepatic microsomes, scaled from intrinsic clearance, mean of two experiments",0.94
same,Cytokine release from biopsies of UC patients IL-1b release,"[2]; 1 μg/mL, DMSO control 100%",26 ± 16%
same,Cytokine release from biopsies of UC patients IL-6 release,"[2]; 1 μg/mL, DMSO control 100%",67 ± 128%
same,Cytokine release from biopsies of UC patients IL-8 release,"[2]; 1 μg/mL, DMSO control 100%",36 ± 117%
same,cytokine release from biopsies from ulcerative colitis (UC) patients,[2]; added to biopsies in vitro,"markedly reduced IL-1b, IL-6 and IL-8 release"
same,ratio of colon weight:length and relative inhibition of cytokine release,SCID mice; adoptive transfer model of colonic inflammation,significant activity
same,% inhibition of IL-8 release,"SCID mice; adoptive transfer mouse model, 5 mg/kg BID oral",68%
same,% Inhibition of colon weight:length,"SCID mice; adoptive transfer mouse model, 5 mg/kg BID oral, P < 0.05 ANOVA to vehicle",51%*
same,AUC(0-inf),"[3]; C57BL/6, po, Plasma",29 ng·h/mL
same,AUC(0-t),"[3]; C57BL/6, po, Plasma",22 ng·h/mL
same,Cmax,"[3]; C57BL/6, po, Plasma",3.5 ng/mL
same,Tmax,"[3]; C57BL/6, po, Plasma",1 h
same,AUC(0-inf),[3]; [5],9280 ng·h/mL
same,AUC(0-t),[3]; [5],7480 ng·h/mL
same,Cmax,[3]; [5],1070 ng/mL
same,Tmax,[3]; [5],4 h
same,Mean hepatic extraction ratio (Eh),[4]; dog hepatocytes,0.87
same,Mean hepatic extraction ratio (Eh),[4]; human hepatocytes,0.69
same,Mean hepatic extraction ratio (Eh),[4]; rat hepatocytes,0.55
